According to article PMC6372667 (Experimental & Molecular Medicine, 2019):

What was measured:
[1] = PAMPA-BBB, literature; format: in vitro ADME; details: from log BB = 0.612 × log Pe + 3.206 (ref 49)
[2] = system: BACE1; details: cited from earlier work
[3] = system: dementia animal models; details: 5 mg/kg i.p. ref 53; cited from earlier work
[4] = molecular target: T1, Electric eel AChE (Electrophorus electricus, UniProt O42275); assay: In vitro cholinesterase enzyme assay (Ellman), AChE; format: biochemical
T1 construct: purchased Sigma-Aldrich Co
T1 sequence (O42275 24-633): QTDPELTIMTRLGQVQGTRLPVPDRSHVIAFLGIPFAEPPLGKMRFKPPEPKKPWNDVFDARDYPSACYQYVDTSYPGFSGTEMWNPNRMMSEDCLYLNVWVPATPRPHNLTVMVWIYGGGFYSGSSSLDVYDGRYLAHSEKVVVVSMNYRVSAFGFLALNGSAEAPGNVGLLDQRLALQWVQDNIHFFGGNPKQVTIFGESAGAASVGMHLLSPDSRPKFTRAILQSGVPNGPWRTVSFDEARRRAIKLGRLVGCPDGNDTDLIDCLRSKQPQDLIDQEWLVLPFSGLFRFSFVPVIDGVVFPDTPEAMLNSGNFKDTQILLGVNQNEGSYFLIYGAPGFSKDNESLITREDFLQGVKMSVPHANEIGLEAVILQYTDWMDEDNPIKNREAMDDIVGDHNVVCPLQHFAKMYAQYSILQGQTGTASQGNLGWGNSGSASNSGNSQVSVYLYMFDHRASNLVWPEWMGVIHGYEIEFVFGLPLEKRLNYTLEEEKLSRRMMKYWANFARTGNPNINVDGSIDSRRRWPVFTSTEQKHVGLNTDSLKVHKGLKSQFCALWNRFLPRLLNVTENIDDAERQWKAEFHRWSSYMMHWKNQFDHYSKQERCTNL
Description: BACE1 (human recombinant β-secretase) ([…]) and the BACE1 FRET (fluorescence resonance energy transfer) assay kit Red were purchased from ThermoFisher Scientific (P2985; Waltham, MA, USA). […] For the cell culture experiment, Dulbecco’s modified Eagle’s medium (DMEM), Opti-MEM, fetal bovine serum (FBS), and penicillin/streptomycin were obtained from Capricorn Scientific (Ebsdorfergrund, Germany). β-secretase inhibitor III (β-SI) was purchased from Calbiochem (Darmstadt, Germany). The protease inhibitor mixture (a mixture of AEBSF, pepstatin A, E-64, bestain, leupeptin, and aprotinin) was purchased from Sigma-Aldrich (St. Louis, MO, USA). Enzyme-linked immunosorbent assay (ELISA) kits for Aβ40 and Aβ42 were obtained from IBL (Kunma, Japan). All chemicals and solvents used were reagent grade, purchased from commercial sources, and used as received.
The inhibitory activities of pterosin derivatives against cholinesterases were measured using the method developed by Ellman et al.[32]. The reaction mixture contained 140 μL of sodium phosphate buffer (pH 8.0), 20 μL of test sample solution (final concentration of the compound 100 μM), and 20 μL of AChE or BChE solution, mixed and incubated for 15 min at room temperature. […] The reactions were initiated following the addition of 10 μL of DTNB and 10 μL of acetyl thiocholine iodide for the AChE assay or butyryl thiocholine chloride for the BChE assay in 96-well microplates, which were incubated for 15 min.

[5] = pharmacokinetic descriptor of the brain ref 53; cited from earlier work

**Q.** Which “log Pe corresponding to log BB” value [1] does the source give for `COc1ccc2cc3[n+](cc2c1OC)CCc1cc2c(cc1-3)OCO2` [Berberine, berberine] here?
**A.** −5.8

**Q.** And the BACE1-inhibitory activity [2]?
**A.** lacks

**Q.** And the Cognitive effect [3]?
**A.** procognitive and antiamnestic properties

**Q.** And the IC50 [4]?
**A.** 390 ± 10 nM

**Q.** What about the “log BB” value [5] of the same molecule?
**A.** −0.35
